Data published in patent US6492365B1, “Microsomal triglyceride transfer protein” (Bristol-Myers Squibb Company, priority 1992, dated 2002).
Counter-ions that a name gives are not always drawn.

Target: T1, bovine MTP (Bos taurus, UniProt P55156)
T1 construct: with about 50-200 ng purified MTP in the well of a 96-well plate; from tissue; host or cells: bovine liver
T1 sequence (P55156 12-887): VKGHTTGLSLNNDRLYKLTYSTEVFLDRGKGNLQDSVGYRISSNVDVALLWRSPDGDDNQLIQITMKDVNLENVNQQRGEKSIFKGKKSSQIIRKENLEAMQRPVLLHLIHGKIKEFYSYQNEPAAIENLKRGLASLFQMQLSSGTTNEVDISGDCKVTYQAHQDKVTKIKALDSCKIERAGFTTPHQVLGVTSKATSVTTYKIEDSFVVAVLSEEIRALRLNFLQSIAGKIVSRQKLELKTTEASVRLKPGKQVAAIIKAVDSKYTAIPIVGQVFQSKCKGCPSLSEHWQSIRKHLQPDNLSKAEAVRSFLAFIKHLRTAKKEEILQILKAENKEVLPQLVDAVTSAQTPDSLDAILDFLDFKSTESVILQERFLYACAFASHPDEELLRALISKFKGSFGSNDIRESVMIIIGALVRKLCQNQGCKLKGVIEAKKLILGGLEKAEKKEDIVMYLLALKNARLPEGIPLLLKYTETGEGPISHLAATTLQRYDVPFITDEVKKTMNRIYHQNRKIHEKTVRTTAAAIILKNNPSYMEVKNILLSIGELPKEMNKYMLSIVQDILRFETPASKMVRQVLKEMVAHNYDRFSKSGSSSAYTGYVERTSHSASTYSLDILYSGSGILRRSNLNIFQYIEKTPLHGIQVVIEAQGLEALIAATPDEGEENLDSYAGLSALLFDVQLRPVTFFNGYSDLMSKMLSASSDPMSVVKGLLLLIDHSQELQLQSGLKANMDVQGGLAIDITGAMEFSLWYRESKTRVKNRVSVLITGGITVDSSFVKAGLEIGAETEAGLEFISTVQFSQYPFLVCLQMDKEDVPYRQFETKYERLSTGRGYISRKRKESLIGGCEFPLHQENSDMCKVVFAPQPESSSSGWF
T1 sequence (P05307 21-510 partner): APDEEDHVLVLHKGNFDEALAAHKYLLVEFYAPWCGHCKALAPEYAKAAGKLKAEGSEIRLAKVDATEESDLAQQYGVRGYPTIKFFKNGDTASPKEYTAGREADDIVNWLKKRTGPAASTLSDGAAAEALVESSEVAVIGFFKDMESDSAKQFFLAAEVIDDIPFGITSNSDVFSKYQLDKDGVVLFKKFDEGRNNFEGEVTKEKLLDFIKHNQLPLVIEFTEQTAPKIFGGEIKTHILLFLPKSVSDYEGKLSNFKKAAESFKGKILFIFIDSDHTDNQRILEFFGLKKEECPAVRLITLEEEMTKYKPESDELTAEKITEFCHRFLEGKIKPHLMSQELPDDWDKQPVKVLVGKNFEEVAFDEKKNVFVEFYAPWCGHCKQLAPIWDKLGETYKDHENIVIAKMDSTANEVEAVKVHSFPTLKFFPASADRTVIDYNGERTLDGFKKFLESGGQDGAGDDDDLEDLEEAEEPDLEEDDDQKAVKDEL
Experiment: MTP-catalyzed transfer of radiolabeled TG from donor HDL to acceptor LDL (primary screen)
Assay type: biochemical
Details: result in words
Experimental: In this screen, the rate of detectably labeled lipid (for example, NMR, ESR, radio or fluorescently labeled TG, CE, or PC) transfer from donor particles (e.g., donor membranes, vesicles, or lipoproteins) to acceptor particles (e.g., acceptor membranes, vesicles, or lipoproteins) in the presence of MTP is measured. A decrease in the observed transfer rate in the presence of an inhibitor of MTP (e.g., contained in a natural products extract or known compounds) may be used as an assay to identify and isolate inhibitors of MTP function. […]
In a typical 150 μL assay, transfer activity is determined by measuring the transfer of radiolabeled TG from [^3H]-HDL (5 μg cholesterol) donor particles to LDL (50 μg cholesterol) acceptor particles at 37° C. for three hours in 15 mM Tris, pH 7.4, 125 mM MOPS, 30 mM Na acetate, 160 mM NaCl, 2.5 mM Na2 EDTA, 0.02% NaN3, 0.5% BSA with about 50-200 ng purified MTP in the well of a 96-well plate. […] The enzyme activity is based on the percentage of TG transfer and is calculated by the following equation: [formula] […]
Using the method outlined in Example 5, MTP inhibitor compounds A and B were identified. The assay measured the bovine MTP-catalyzed rate of transport of radiolabeled TG from donor HDL to acceptor LDL. […]

inhibition of MTP-catalyzed transport of 3H-TG from HDL to LDL	SMILES
inhibited	O=C1c2ccccc2CN1C1CCN(CCC(c2ccccc2)c2ccccc2)CC1 [compound A, 2-[1-(3,3-diphenylpropyl)-4-piperdinyl]-2,3-dihydro-3-oxo-1H-isoindole hydrochloride]
MTP inhibitor	COc1ccccc1N1CCN(CC2CC(=O)c3ccc(F)cc3C2)CC1 (centres unmarked) [compound B, 1-[3-(6-fluoro-1-tetralanyl)methyl]-4-O-methoxyphenyl piperazine]
